Experimental data as given in ChEMBL document CHEMBL4229466, “Conformational Propensity and Biological Studies of Proline Mutated LR Peptides Inhibiting Human Thymidylate Synthase and Ovarian Cancer Cell Growth” (J Med Chem, 2018).
Calls of active or inactive are those of the source. The rule behind the calls is not given here. Non-standard residues stand in square brackets, D forms with d. Residues, ends and D or L forms follow the SMILES beside them.

How the values were obtained:
IGROV-1 [1] = test: Effect on TS protein expression in human IGROV1 cells by Western blot analysis; format: functional, cell-based
IGROV-1 [2] = test: Effect on HSP90 protein expression in human IGROV1 cells by Western blot analysis; format: functional, cell-based
IGROV-1 [3] = test: Effect on DHFR protein expression in human IGROV1 cells by Western blot analysis; format: functional, cell-based
IGROV-1 [4] = test: Downregulation of TRAP1 protein levels in human IGROV1 cells by Western blot analysis; format: functional, cell-based
IGROV-1 [5] = test: Cytotoxicity against human IGROV1 cells after 72 hrs; format: functional, cell-based; conditions: IGROV-1, 72 h
C13 = test: Cytotoxicity against human C13 cells after 72 hrs; format: functional, cell-based; conditions: C13, 72 h
[6] = target: Thymidylate synthase (Homo sapiens) (UniProt P04818); test: Inhibition of thymidylate synthase in human IGROV1 cell lysate using [5-3H]dUMP as substrate assessed as decrease in residual activity at 5 uM after 60 mins by liquid scintillation counting analysis relative to control
Chain of Thymidylate synthase (Homo sapiens) (P04818 2-313 limits assumed): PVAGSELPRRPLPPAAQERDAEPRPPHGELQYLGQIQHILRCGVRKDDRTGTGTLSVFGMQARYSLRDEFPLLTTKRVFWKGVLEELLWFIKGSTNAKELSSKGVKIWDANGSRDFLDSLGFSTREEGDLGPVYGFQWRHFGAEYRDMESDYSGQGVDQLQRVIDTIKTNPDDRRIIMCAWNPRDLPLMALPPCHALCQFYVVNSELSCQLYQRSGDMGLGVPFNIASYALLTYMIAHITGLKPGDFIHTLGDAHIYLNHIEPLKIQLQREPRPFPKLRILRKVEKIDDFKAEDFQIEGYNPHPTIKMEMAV

2008 = test: Cytotoxicity against human 2008 cells; format: functional, cell-based

Row | Compound | Activity (IGROV-1 [1]) | Activity (IGROV-1 [2]) | Activity (IGROV-1 [3]) | Activity (IGROV-1 [4]) | IC50 (IGROV-1 [5]) | IC50 (C13) | inhibition [6] | IC50 2008
1 | Nc1nc2[nH]cc(CCc3ccc(C(=O)N[C@@H](CCC(=O)O)C(=O)O)cc3)c2c(=O)[nH]1 | Active | Active | Active | – | – | – | – | –
2 | CC(C)C[C@H](NC(=O)[C@@H](CCC(N)=O)NC(=O)[C@H](CS)NC(=O)[C@H](CO)NC(=O)[C@@H](N)CC(C)C)C(=O)N[C@@H](Cc1ccc(O)cc1)C(=O)N[C@@H](CCC(N)=O)C(=O)N[C@@H](CCCNC(=N)N)C(=O)O (H-LSC[dQ]LYQR-OH) | – | – | – | Active | – | – | – | –
3 | O=c1[nH]cc(F)c(=O)[nH]1 [FLUOROURACIL] | – | – | – | – | 10.6 µM | 12.1 µM | Active | 6 µM
4 | H-LSCPLYQR-OH | Active | Active | Active | Active | 4.32 to 12.1 µM | 3.55 to 8.1 µM | 25% | 0.96 to 1.57 µM
5 | H-LSCQLYPR-OH | – | – | – | – | 4.32 µM | 3.55 to 8.1 µM | > 30% | 0.96 to 1.57 µM
6 | H-LSCQLYQR-OH | – | – | – | – | 8.2 µM | 9.5 µM | – | 4.6 µM
7 | H-LSPQLYQR-OH | Active | Active | Active | – | 6.2 µM | 3.55 to 8.1 µM | 25% | 0.96 to 1.57 µM
